# Source: patent US6333338A, “Bispiperidines as antithrombotic agents” (Laboratoire L. Lafon, priority 1998, dated 2001)
# Structures can show the parent of a compound that is named as a salt. Where two headings read alike, the source gives them in different places.
# Columns and labels:
# [1] = test system: guinea pig platelets; assay: Ex vivo/vitro inhibition of platelet aggregation after administration via the gastric route in guinea pigs; set-up: species or system guinea pig (Dunkin-Hartley); details: Cavia porcellus, Platelet, fasted guinea pigs
# Protocol: A study of the inhibitory activity of the compounds of formula I on platelet aggregation was carried out in vitro, i.e. by direct contact of solutions of variable concentrations of the compounds with platelets freshly separated from a sample of total blood, taken under standardized conditions, from laboratory animals (guinea pigs) and from healthy human subjects who have not received any substances or drugs that might interfere with blood clotting. The anti-platelet-aggregating activity was also studied ex vivo/vitro, i.e. after administration of the substances claimed to guinea pigs to measure the intensity and duration of the anti-aggregating action induced by the fraction of the test product absorbed and circulating in the blood. Evaluation of the anti-platelet-aggregating activity of the compounds is carried out in the same guinea pigs as those mentioned above (Dunkin-Hartley strain). […] The allocation of the treatments to the animals is random. The blood is taken and then treated under the same conditions as those described above for the in vitro studies. The results of the inhibition of the platelet aggregation obtained for each test concentration make it possible to calculate the IC50 concentration of each test product and the kinetics of the inhibitory effect and its duration of action.
# [2] = test system: guinea pig platelets; assay: In vitro inhibition of collagen-induced platelet aggregation, guinea pig platelets (PRP); assay type: cell-based, guinea pig (male Dunkin-Hartley); details: Cavia porcellus, Platelet, 0.05 h, collagen 1 μg/ml, 3 minutes of contact at 37° C.
# Protocol: A study of the inhibitory activity of the compounds of formula I on platelet aggregation was carried out in vitro, i.e. by direct contact of solutions of variable concentrations of the compounds with platelets freshly separated from a sample of total blood, taken under standardized conditions, from laboratory animals (guinea pigs) and from healthy human subjects who have not received any substances or drugs that might interfere with blood clotting. The anti-platelet-aggregating activity was also studied ex vivo/vitro, i.e. after administration of the substances claimed to guinea pigs to measure the intensity and duration of the anti-aggregating action induced by the fraction of the test product absorbed and circulating in the blood.
# Blood is taken by intracardiac puncture from male Dunkin-Hartley guinea pigs (weighing about 330 g), at a rate of 4.5 ml per 0.5 ml of trisodium citrate (concentration of the aqueous solution: 1.55%) in order to prevent all trace of clotting. The platelet-rich plasma (PRP) is obtained by centrifuging the tubes of total blood for 15 minutes at 150 g.
# The PRPs are collected as "pools". The platelets contained in these pools are counted using a Coulter ZM haematology automatic device: if necessary, a dilution is carried out in order for the platelet concentration in the plasma to be between 200,000 and 400,000 platelets/mm^3. Simultaneously, other samples of these pools serve to prepare the platelet-poor plasma (PPP) by centrifugation at 1500 g for 15 minutes.
# The kinetic study of the platelet aggregation is carried out by adding a collagen solution (1 μg/ml) to a volume of PRP, using a Chrono-log Corporation aggregometer (490-D1 or 560 VS) which uses an optical detection of the appearance of the thrombus.
# The measurements of the aggregation inhibition are carried out after 3 minutes of contact at 37° C. with agitation.
# [3] = 1 h before blood sampling, read-out: % of g.r. inhibition guinea pig ex vivo, d = 10 mg/kg, 1 h
# [4] = 2 h before blood sampling, read-out: % of g.r. inhibition guinea pig ex vivo, d = 10 mg/kg, 2 h
# [5] = 1 h before blood sampling, read-out: % of g.r. inhibition guinea pig ex vivo, d = 150 mg/kg, 1 h
# [6] = 2 h before blood sampling, read-out: % of g.r. inhibition guinea pig ex vivo, d = 150 mg/kg, 2 h
smiles,measurement,setting,value
"O=C(CNC(=O)C(CCC1CCNCC1)CCC1CCNCC1)NC[C@H](NS(=O)(=O)c1ccc2c(c1)OCO2)C(=O)O [Example 57, 2-[(1,3-Benzodioxol-5-ylsulphonyl)amino]-3-{[2-({4-(4-piperidyl)-2-[2-(4-piperidyl)ethyl]butanoyl}amino)acetyl]amino}propanoic Acid Dihydrochloride]",inhibition at 10 mg/kg,[1]; [3],-38%
same,inhibition at 10 mg/kg,[1]; [4],-24%
same,IC50,[2],830 nM
"Cc1nc(C)c(S(=O)(=O)NC(CNC(=O)CNC(=O)C(CCC2CCNCC2)CCC2CCNCC2)C(=O)O)s1 (stereo not drawn) [Example 54, 2-{[(2,4-Dimethyl-1,3-thiazol-5-yl)sulphonyl]amino}-3-{[2-({4-(4-piperidyl)-2-[2-(4-piperidyl)ethyl]butanoyl}amino)acetyl]amino}propanoic Acid Dihydrochloride]",inhibition at 10 mg/kg,[1]; [3],-40%
same,inhibition at 10 mg/kg,[1]; [4],-15%
same,IC50,[2],1300 nM
"O=C(CNC(=O)C(CCC1CCNCC1)CCC1CCNCC1)NCC(NS(=O)(=O)c1cccc2cccnc12)C(=O)O (stereo not drawn) [Example 47, 2-[(8-Quinolinylsulphonyl)amino]-3-{[2-({4-(4-piperidyl)-2-[2-(4-piperidyl)ethyl]butanoyl}amino)acetyl]amino}propanoic Acid Trihydrochloride]",inhibition at 10 mg/kg,[1]; [3],-4%
same,inhibition at 10 mg/kg,[1]; [4],-17%
same,IC50,[2],1900 nM
"O=C(CNC(=O)C(CCC1CCNCC1)CCC1CCNCC1)NCC(NS(=O)(=O)c1ccccc1-c1cccs1)C(=O)O (stereo not drawn) [Example 66, 2-({[2-(2-Thienyl)phenyl]sulphonyl}amino) 3-{[2-({4-(4-piperidyl)-2-[2-(4-piperidyl)ethyl]butanoyl}amino)acetyl]amino}propanoic Acid Dihydrochloride]",inhibition at 10 mg/kg,[1]; [3],-18%
same,inhibition at 10 mg/kg,[1]; [4],0%
same,IC50,[2],350 nM
"O=C(CNC(=O)C(CCC1CCNCC1)CCC1CCNCC1)NCC(NC(=O)c1ccc2c(c1)OCO2)C(=O)O (stereo not drawn) [Example 25, 2-[(1,3-Benzodioxol-5-ylcarbonyl)amino]-3-{[2-({4-(4-piperidyl)-2-[2-(4-piperidyl)ethyl]butanoyl}amino)acetyl]amino}propanoic Acid Dihydrochloride]",inhibition at 150 mg/kg,[1]; [5],-33%
same,inhibition at 150 mg/kg,[1]; [6],-48%
same,IC50,[2],29000 nM
"O=C(CNC(=O)C(CCC1CCNCC1)CCC1CCNCC1)NCC(NS(=O)(=O)/C=C/c1ccccc1)C(=O)O (stereo not drawn) [Example 42, 2-({[(E)-2-Phenylethenyl]sulphonyl}amino)-3-{[2-({4-(4-piperidyl)-2-[2-(4-piperidyl)ethyl]butanoyl}amino)acetyl]amino}propanoic Acid Dihydrochloride]",inhibition at 10 mg/kg,[1]; [3],-14%
same,inhibition at 10 mg/kg,[1]; [4],-26%
same,IC50,[2],420 nM
"Cc1cccc(S(=O)(=O)NC(CNC(=O)CNC(=O)C(CCC2CCNCC2)CCC2CCNCC2)C(=O)O)c1 (stereo not drawn) [Example 40, 2-{[(3-Methylphenyl)sulphonyl]amino}-3-{[2-({4-(4-piperidyl)-2-[2-(4-piperidyl)ethyl]butanoyl}amino)acetyl]amino}propanoic Acid Dihydrochloride]",inhibition at 10 mg/kg,[1]; [3],-32%
same,inhibition at 10 mg/kg,[1]; [4],-10%
same,IC50,[2],400 nM
"O=C(CNC(=O)C(CCC1CCNCC1)CCC1CCNCC1)NCC(NS(=O)(=O)c1cccc([N+](=O)[O-])c1)C(=O)O (stereo not drawn) [Example 45, 2-{[(3-Nitrophenyl)sulphonyl]amino}-3-{[2-({4-(4-piperidyl)-2-[2-(4-piperidyl)ethyl]butanoyl}amino)acetyl]amino}propanoic Acid Dihydrochloride]",inhibition at 10 mg/kg,[1]; [3],-36%
same,inhibition at 10 mg/kg,[1]; [4],-51%
same,IC50,[2],500 nM
"Cc1n[nH]c(C)c1S(=O)(=O)NC(CNC(=O)CNC(=O)C(CCC1CCNCC1)CCC1CCNCC1)C(=O)O (stereo not drawn) [Example 55, 2-{[3,5-Dimethyl-1H-pyrazol-4-yl)sulphonyl]amino}-3-{[2-({4-(4-piperidyl)-2-[2-(4-piperidyl)ethyl]butanoyl}amino)acetyl]amino}propanoic Acid Dihydrochloride]",inhibition at 10 mg/kg,[1]; [3],-21%
same,inhibition at 10 mg/kg,[1]; [4],-17%
same,IC50,[2],3500 nM
"O=C(CNC(=O)C(CCC1CCNCC1)CCC1CCNCC1)NCC(NS(=O)(=O)c1ccc2c(c1)CCO2)C(=O)O (stereo not drawn) [Example 64, 2-[(2,3-Dihydro-1-benzofuran-5-ylsulphonyl)amino]-3-{[2-({4-(4-piperidyl)-2-[2-(4-piperidyl)ethyl]butanoyl}amino)acetyl]amino}propanoic Acid Dihydrochloride]",inhibition at 10 mg/kg,[1]; [3],-65%
same,inhibition at 10 mg/kg,[1]; [4],-5%
same,IC50,[2],370 nM
"CS(=O)(=O)c1ccc(S(=O)(=O)NC(CNC(=O)CNC(=O)C(CCC2CCNCC2)CCC2CCNCC2)C(=O)O)cc1 (stereo not drawn) [Example 32, 2-({[4-(Methylsulphonyl)phenyl]sulphonyl}amino)-3-{[2-({4-(4-piperidyl)-2-[2-(4-piperidyl)ethyl]butanoyl}amino)acetyl]amino}propanoic Acid Dihydrochloride]",inhibition at 10 mg/kg,[1]; [3],-8%
same,inhibition at 10 mg/kg,[1]; [4],-8%
same,IC50,[2],12000 nM
"O=C(CNC(=O)C(CCC1CCNCC1)CCC1CCNCC1)NCC(NS(=O)(=O)Cc1ccccc1)C(=O)O (stereo not drawn) [Example 41, 2-[(Benzylsulphonyl)amino]-3-{[2-({4-(4-piperidyl)-2-[2-(4-piperidyl)ethyl]butanoyl}amino)acetyl]amino}propanoic Acid Dihydrochloride]",inhibition at 10 mg/kg,[1]; [3],13%
same,inhibition at 10 mg/kg,[1]; [4],1%
same,IC50,[2],8600 nM
"Cc1cc(S(=O)(=O)NC(CNC(=O)CNC(=O)C(CCC2CCNCC2)CCC2CCNCC2)C(=O)O)c(C)o1 (stereo not drawn) [Example 60, 2-{[(2,5-Dimethyl-3-furyl)sulphonyl]amino}-3-{[2-({4-(4-piperidyl)-2-[2-(4-piperidyl)ethyl]butanoyl}amino)acetyl]amino}propanoic Acid Dihydrochloride]",inhibition at 10 mg/kg,[1]; [3],-53%
same,inhibition at 10 mg/kg,[1]; [4],-32%
same,IC50,[2],660 nM
"O=C(O)COc1cccc(C(CC(=O)O)NC(=O)CNC(=O)C(CCC2CCNCC2)CCC2CCNCC2)c1 (stereo not drawn) [Example 9, 3-[(3-Carboxymethoxy)phenyl]-3-{[2-({4-(4-piperidyl)-2-[2-(4-piperidyl)ethyl]butanoyl}amino)acetyl]amino}-propanoic Acid Dihydrochloride]",inhibition at 150 mg/kg,[1]; [5],-53%
same,inhibition at 150 mg/kg,[1]; [6],-5%
same,IC50,[2],5000 nM
"Cc1noc(C)c1S(=O)(=O)NC(CNC(=O)CNC(=O)C(CCC1CCNCC1)CCC1CCNCC1)C(=O)O (stereo not drawn) [Example 48, 2-{[(3,5-Dimethyl-4-isoxazolyl)sulphonyl]amino}-3-{[2-({4-(4-piperidyl)-2-[2-(4-piperidyl)ethyl]butanoyl}amino)acetyl]amino}propanoic Acid Dihydrochloride]",inhibition at 10 mg/kg,[1]; [3],-61%
same,inhibition at 10 mg/kg,[1]; [4],-15%
same,IC50,[2],420 nM
"O=C(CNC(=O)C(CCC1CCNCC1)CCC1CCNCC1)NC[C@H](NS(=O)(=O)c1ccc(-c2cccs2)cc1)C(=O)O [Example 65, 2-({[4-(2-Thienyl)phenyl]sulphonyl}amino) 3-{[2-({4-(4-piperidyl)-2-[2-(4-piperidyl)ethyl]butanoyl}amino)acetyl]amino}propanoic Acid Dihydrochloride]",inhibition at 10 mg/kg,[1]; [3],-65%
same,inhibition at 10 mg/kg,[1]; [4],-12%
same,IC50,[2],200 nM
